From patent publication US11673899B2, “Crystal form of thieno[2,3-c]pyridazine-4(1H)-one compound, preparation method therefor and use thereof” (ZHANGZHOU PIEN TZE HUANG PHARMACEUTICAL CO., LTD., priority 2019, dated 2023)

Assays:
[1] = Stability of crystal form to light, heat and humidity; format: physicochemical; details: solid crystal form
[2] = system: HFD+CCl4-induced NASH mouse model; assay: In vivo pharmacodynamic study in HFD+CCl4-induced NASH mouse model; details: HFD+CCl4 mice; 0.5, 1, 3 mg/kg by gavage QD day 0 to day 27; reference I-181 3 mg/kg
Excerpt: To study the effect of a compound on improving NASH and liver fibrosis in an HFD+CCl4 mouse model, with I-181 as a reference compound.
I-181 is an acetyl-CoA carboxylase inhibitor and is currently undergoing a phase II clinical study on non-alcoholic fatty liver disease (NAFLD). The HFD+CCl4 mouse model used in this study is an animal model that simulates human non-alcoholic fatty liver disease evolving into NASH. High-fat diet leads to fat accumulation and steatosis in liver cells; CCl4 (intraperitoneal injection, twice a week) simulates the “second hit” of liver injury.
The modeling for this experiment included two steps: high-fat diet feeding and CCl4 induction. Firstly, the mice were fed with high-fat diet to induce non-alcoholic fatty liver, and the mice weighing more than (>) 38 g were selected and continuously fed with high-fat diet, accompanied by the intraperitoneal injection of 25% CCl4 ([…], twice a week, for a total of four weeks). The day of starting CCl4 administration was set as day 0, and the time of starting CCl4 administration was set as hour 0. On the day of starting CCl4 administration, the administration by gavage was started, and the administration volume of each group was 5 mL/kg, once a day for 4 weeks (28 days). The injection time of CCl4 should be more than 4 hours apart from the first administration time point of the day. […]

SMILES | Stability (light, heat and humidity) [1] | Efficacy in NAS [2] | Efficacy in fibrosis [2]
COc1ccccc1[C@H](Cn1nc(C(C)(C)C(=O)O)c(=O)c2c(C)c(-c3ncco3)sc21)OC1CCOCC1 | stable, and less affected by light, heat and humidity | – | –
COc1ccccc1[C@H](Cn1nc(C(C)(C)C(=O)O)c(=O)c2c(C)c(-c3ncco3)sc21)OC1CCOCC1 [Compound of formula (I)] | – | the same efficacy as the reference compound at a higher dose | the same efficacy as the reference compound at a higher dose
